Reference: the supplement of paper PMC10307832

Columns and labels:
Assay in all cases: relative viability (nuclei count vs DMSO), 5 days (fraction); higher = more cells survive
[1] = compound: CN(c1ncccc1CNc1nc(Nc2ccc3c(c2)CC(=O)N3)ncc1C(F)(F)F)S(C)(=O)=O
In short: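 On vehicle-anchored 1536-well plates, lung cancer cell lines held overnight at 37 °C were pinned with five library-drug doses (not always all listed) spaced by √10. With no medium change over 5 days, they were then fixed, permeabilised and Hoechst-stained in one step and imaged at 4×. MetaXpress counted nuclei, and viability is the median across plates of treated-well over vehicle-well nuclei. Acceptance needed control CV below 25% and at least one doubling.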

[2] = compound: CN(c1ncccc1CNc1nc(Nc2ccc3c(c2)CC(=O)N3)ncc1C(F)(F)F)S(C)(=O)=O + N=C(N)NC(=N)NCCc1ccccc1 [Phenformin] (partner 250 µM)
In short: (§1)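 Relative viability divides the nuclei count in treated wells by that in vehicle wells. Lung cancer cell lines were seeded in 1536-well plates, dosed by pin tool the next day, and fixed and stained after 5 days in one step with final 0.05% Triton X-100, 1% formaldehyde and 1 ug/ml Hoechst. Dosing was a single drug or a fixed anchor-drug dose plus five library-drug doses (not always all listed) in √10 steps, and values are medians of duplicate plates imaged at 4×.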

[3] = compound: CN(c1ncccc1CNc1nc(Nc2ccc3c(c2)CC(=O)N3)ncc1C(F)(F)F)S(C)(=O)=O + Cc1cc(Nc2cc(N3CCN(C)CC3)nc(Sc3ccc(NC(=O)C4CC4)cc3)n2)n[nH]1 [Tozasertib] (partner 0.1 µM)
In short: as §1

[4] = compound: CN(c1ncccc1CNc1nc(Nc2ccc3c(c2)CC(=O)N3)ncc1C(F)(F)F)S(C)(=O)=O + CC1(C)CCC(c2ccc(Cl)cc2)=C(CN2CCN(c3ccc(C(=O)NS(=O)(=O)c4ccc(N[C@H](CCN5CCOCC5)CSc5ccccc5)c(S(=O)(=O)C(F)(F)F)c4)cc3)CC2)C1 [Navitoclax] (partner 0.5 µM)
In short: as §1

Cell Line	relative viability ([1]; 0.01 µM)	relative viability ([1]; 0.03162 µM)	relative viability ([1]; 0.1 µM)	relative viability ([1]; 0.3162 µM)	relative viability ([1]; 1 µM)	relative viability ([2]; first compound 0.01 µM)	relative viability ([2]; first compound 0.03162 µM)	relative viability ([2]; first compound 0.1 µM)	relative viability ([2]; first compound 0.3162 µM)	relative viability ([2]; first compound 1 µM)	relative viability ([3]; first compound 0.01 µM)	relative viability ([3]; first compound 0.03162 µM)	relative viability ([3]; first compound 0.1 µM)	relative viability ([3]; first compound 0.3162 µM)	relative viability ([3]; first compound 1 µM)	relative viability ([4]; first compound 0.01 µM)	relative viability ([4]; first compound 0.03162 µM)	relative viability ([4]; first compound 0.1 µM)	relative viability ([4]; first compound 0.3162 µM)	relative viability ([4]; first compound 1 µM)
201T	1.02	0.951	0.911	0.949	0.961	0.43	0.394	0.445	0.443	0.437	0.921	1	0.912	0.845	0.894	1.21	1.26	1.18	1.16	1.15
A549	1.04	1.17	0.922	0.95	0.95	0.189	0.205	0.173	0.133	0.152	–	–	–	–	–	1.19	1.07	1.26	1.13	1.1
A-427	1.01	1.02	0.944	1.02	1.05	0.337	0.315	0.353	0.269	0.291	0.223	0.191	0.207	0.186	0.211	0.999	0.973	1.02	0.973	0.945
ABC-1	0.947	0.818	0.926	0.899	0.879	0.214	0.238	0.26	0.279	0.229	0.173	0.161	0.158	0.137	0.172	–	–	–	–	–
BEN	1.05	1.06	1.03	1	1.02	0.253	0.281	0.268	0.336	0.246	0.416	0.562	0.506	0.541	0.471	0.0691	0.0546	0.0649	0.0815	0.0763
CAL-12T	1.03	0.979	0.914	0.865	0.849	0.628	0.523	0.536	0.512	0.444	0.271	0.249	0.274	0.271	0.209	1.25	1.1	1.27	1.27	0.883
COR-L23	1.01	1.1	0.981	1	0.8	0.464	0.54	0.416	0.424	0.332	0.184	0.195	0.186	0.146	0.129	0.929	1.09	0.933	1.01	0.826
COR-L 105	1.04	0.955	0.945	0.874	0.92	0.46	0.493	0.45	0.418	0.492	0.365	0.322	0.341	0.399	0.247	0.773	0.833	0.869	0.777	0.493
Calu-6	1.06	0.99	0.945	0.961	0.863	–	–	–	–	–	–	–	–	–	–	0.848	0.863	0.78	0.777	0.772
ChaGo-K-1	0.963	1.08	0.948	0.96	1.02	0.489	0.444	0.461	0.489	0.404	0.233	0.231	0.223	0.236	0.205	1.04	0.819	1.11	–	1.08
EBC-1	1.03	1.09	0.989	0.937	0.776	–	–	–	–	–	–	–	–	–	–	0.461	0.318	0.351	0.385	0.302
EKVX	0.971	1.08	0.945	0.883	0.88	0.251	0.236	0.24	0.231	0.24	0.456	0.428	0.454	0.339	0.316	0.974	1.02	0.944	0.852	0.81
EMC-BAC-2	1.02	0.921	0.938	0.948	0.948	0.628	0.568	0.496	0.551	0.452	0.302	0.283	0.287	0.255	0.246	1.18	1.24	1.05	1.16	1.2
EPLC-272H	0.948	0.955	1.01	1.18	0.875	0.307	0.309	0.339	0.327	0.345	0.346	0.234	0.314	0.278	0.182	1.28	1.08	1.16	1.35	0.97
H3255	0.974	1.07	0.95	0.906	0.972	0.34	0.339	0.316	0.384	0.342	0.808	0.599	0.775	0.571	0.51	0.606	0.518	0.616	0.475	0.35
HARA	0.943	0.757	0.937	0.874	0.787	0.449	0.5	0.532	0.432	0.356	0.11	0.117	0.116	0.0944	0.0785	1.18	1.19	1.14	0.91	0.968
HCC-15	1.02	1.06	0.888	0.908	0.853	0.492	0.501	0.463	0.384	0.405	0.418	0.555	0.44	0.32	0.254	0.716	0.745	0.639	0.579	0.507
HCC-44	0.956	0.941	0.917	1	0.984	0.193	0.171	0.297	0.239	0.316	1.02	0.926	0.94	–	0.804	0.977	1.15	0.951	0.905	0.756
HCC-78	0.993	1.02	0.807	0.862	0.739	0.67	0.662	0.563	0.566	0.573	0.463	0.428	0.427	0.45	0.332	0.81	0.845	0.73	0.632	0.674

Cell Line	relative viability ([1]; 0.01 µM)	relative viability ([1]; 0.03162 µM)	relative viability ([1]; 0.1 µM)	relative viability ([1]; 0.3162 µM)	relative viability ([1]; 1 µM)	relative viability ([2]; first compound 0.01 µM)	relative viability ([2]; first compound 0.03162 µM)	relative viability ([2]; first compound 0.1 µM)	relative viability ([2]; first compound 0.3162 µM)	relative viability ([2]; first compound 1 µM)	relative viability ([3]; first compound 0.01 µM)	relative viability ([3]; first compound 0.03162 µM)	relative viability ([3]; first compound 0.1 µM)	relative viability ([3]; first compound 0.3162 µM)	relative viability ([3]; first compound 1 µM)	relative viability ([4]; first compound 0.01 µM)	relative viability ([4]; first compound 0.03162 µM)	relative viability ([4]; first compound 0.1 µM)	relative viability ([4]; first compound 0.3162 µM)	relative viability ([4]; first compound 1 µM)
HCC-366	0.997	1.04	1.02	1	1.02	0.662	0.695	0.614	0.577	0.606	0.129	0.143	0.126	0.0925	0.0651	1.03	1.18	1.08	1.04	0.927
HCC-827	1.05	1.08	1.04	1.01	0.989	0.402	0.465	0.432	0.441	0.404	0.372	0.455	0.401	0.436	0.43	1.01	1	0.995	1.04	0.915
HOP-62	1.07	1.08	0.99	0.979	0.98	0.776	0.681	0.628	0.675	0.558	0.408	0.42	0.391	0.318	0.262	1.18	1.07	0.94	1.04	0.934
IA-LM	0.899	1.11	0.912	0.823	0.805	–	–	–	–	–	–	–	–	–	–	0.712	0.726	0.786	0.788	0.654
LC-2-ad	1.01	1.01	0.966	0.883	0.967	0.52	0.544	0.548	0.567	0.524	0.417	0.433	0.546	0.426	0.442	0.556	0.479	0.433	0.364	0.322
LCLC-97TM1	1	1.11	0.881	0.966	0.821	0.345	0.437	0.425	0.397	0.401	0.281	0.194	0.256	0.218	0.18	–	0.394	0.25	0.381	0.385
LCLC-103H	0.964	0.966	0.877	0.919	0.958	0.337	0.298	0.277	0.348	0.318	0.469	0.457	0.414	0.415	0.466	–	–	–	–	–
LK-2	1.05	1.24	1.03	1.08	1.1	0.376	0.386	0.63	0.517	0.532	0.201	0.163	0.174	0.169	0.182	1.04	1.03	1.02	0.809	0.773
NCI-H358	0.943	0.973	0.868	0.838	0.664	0.336	0.338	0.317	0.317	0.202	0.0908	0.102	0.0923	0.103	0.0817	–	–	–	–	–
NCI-H650	1.03	1	0.825	0.905	0.802	0.492	0.464	0.396	0.393	0.441	0.713	0.712	0.637	0.622	0.608	–	–	–	–	–
NCI-H661	1.08	1.05	0.89	0.988	0.968	0.285	0.286	0.289	0.277	0.294	0.294	0.334	0.361	0.372	0.353	–	–	–	–	–
NCI-H1299	1.02	1.04	1.04	0.986	1.01	–	–	–	–	–	–	–	–	–	–	1.04	1.05	1.06	1.07	1.04
NCI-H1563	1	0.962	0.947	0.808	0.938	0.677	0.686	0.683	0.634	0.649	–	–	–	–	–	–	–	–	–	–
NCI-H1648	0.773	0.512	0.585	0.634	0.458	–	–	–	–	–	0.433	0.36	0.317	0.386	0.407	–	–	–	–	–
NCI-H1703	0.955	0.931	0.861	1.08	0.905	–	–	–	–	–	–	–	–	–	–	0.951	1.12	1.03	1.11	1.02
NCI-H1792	0.925	0.983	0.888	0.975	0.992	0.258	0.297	–	0.281	0.489	–	–	–	–	–	0.629	0.536	0.578	0.642	0.581
NCI-H2342	0.884	1.02	0.791	0.962	0.854	0.638	0.563	0.475	0.522	0.475	0.524	0.493	0.561	0.409	0.489	–	–	–	–	–
SW 900	1.03	0.961	0.791	0.867	0.753	0.745	0.735	0.602	0.515	0.581	0.547	0.629	0.543	0.495	0.446	–	–	–	–	–
